Like-named read-outs stand apart in the source and are kept apart here.
Columns and labels:
NR2B-subtype receptors = target: T1, NR2B-subtype receptors (Mus musculus, UniProt P35438+Q01097); assay: Ex vivo occupancy assay; type: in vivo; conditions: iv; for receptor occupancy at 3 mg/kg: CD-1 mice, 3 mg/Kg i.v., forebrain harvested 15 minutes post-dosing; for receptor occupancy at 1 mg/kg: mice, 1 mg/Kg i.v., after forced swim test
T1 construct: from tissue; host or cells: forebrain membrane homogenate of dosed CD-1 mice
Method: (§1) 7-9 weeks old male CD-1 mice were dosed intravenously in a vehicle consisting of 10% dimethylacetamide, 40% PEG-400, 30% hydroxypropyl betacyclodextrin, and 30% water with experimental compounds and the forebrains were harvested 15 minutes post-dosing by decapitation. The brain samples were immediately snap-frozen and stored at −80° C. On the following day, the dosed brain samples were thawed on ice for 15-20 minutes followed by homogenization using Polytron for 10 seconds in cold homogenization buffer composed of 50 mM KH2PO4 (pH adjusted to 7.4 with KOH), 1 mM EDTA, 0.005% Triton X 100 and protease inhibitor cocktail (Sigma Aldrich). The crude homogenates were further homogenized using a Dounce homogenizer and the homogenized membrane aliquots from all animals were flash-frozen and stored at −80° C. until further use. The whole homogenization process was performed on ice.
For determining occupancy, the membrane homogenates were first thawed on ice and then needle-homogenized using a 25 gauge needle. The homogenized membrane (6.4 mg/ml) was added to a 96-well plate followed by addition of ^3H Ro 25-6981 (6 nM). The reaction mixture was incubated for 5 minutes on a shaker at 4° C. and then harvested onto GF/B filter plates (treated with 0.5% PEI for 1 hr at room temperature). The filter plates were dried at 50° C. for 20 mins, incubated with microscint 20 for 10 minutes and read on TopCount (Perkin Elmer). Each dose or compound group consisted of 4-5 animals. The control group of animals was dosed with vehicle alone. Membrane from each animal was added in triplicates to the assay plate. Non-specific binding was determined using 10 μM Ro 25-6981 added to the wells containing membrane homogenates from vehicle-dosed animals. Specific counts/minute was converted to % occupancy at each dose of a compound for each animal using the following equation:
(§2) [formula] […] Drug levels were determined by mass spectroscopy in the usual manner. Drug levels in the blood plasma were 1106 nM in at this dose, and drug levels in the homogonized brain tissue were 1984 nM. […] Drug levels in the blood plasma were 1800 nM in at this dose, and drug levels in the homogonized brain tissue were 2200 nM. […] Drug levels in the blood plasma were 570 nM at this dose, and drug levels in the homogonized brain tissue were 900 nM.

mice = assay: Mouse forced swim test (mFST); type: in vivo; conditions: 1 mg/Kg i.v., 15 min before 6 min swim session
Method: Forced Swim Test (FST) is an animal model used to assess antidepressant compounds in preclinical studies. The FST was performed similar to the method of Porsolt et al. with modifications (Porsolt R D, Bertin A, Jalfre M. Behavioral despair in mice: a primary screening test for antidepressants. Arch Int Pharmacodyn Thér 1977; 229:327-36). In this paradigm, mice are forced to swim in an inescapable cylinder filled with water. Under these conditions, mice will initially try to escape and eventually develop immobility behavior; this behavior is interpreted as a passive stress-coping strategy or depression-like behavior. Swim tanks were positioned inside a box made of plastic. Each tank was separated from each other by opaque plastic sheets to the height of cylinders. Three mice were subjected to test at a time. Swim sessions were conducted for 6 min by placing mice in individual glass cylinders (46 cm height×20 cm diameter) containing water (20-cm deep, maintained at 24-25° C.). […] The duration of immobility was evaluated during the total 6 min of the test and expressed as duration (sec) of immobility. […] For NCE testing: Test compound was administered in mice 15 min before swim session by i.v. route and immobility time was recorded for next 6 min. […] The NR2B receptor occupancy was determined as reported above and was determined to be 73%. […] The NR2B receptor occupancy was determined to be 79%.

[1] = target: T2, NR2B-subtype NMDA receptors (Rattus norvegicus, UniProt P35439+Q00960); assay: Radioligand binding assay (3H Ro 25-6981 competition, rat forebrain membranes); conditions: 3H Ro 25-6981 4 nM
T2 construct: For membrane preparation, rat forebrains were thawed on ice; from tissue; host or cells: rat forebrain membrane homogenate (Sprague Dawley, Harlan)
Method: For membrane preparation, rat forebrains were thawed on ice for 20 minutes in homogenization buffer composed of 50 mM KH2PO4 (pH adjusted to 7.4 with KOH), 1 mM EDTA, 0.005% Triton X 100 and protease inhibitor cocktail (Sigma Aldrich). Thawed brains were homogenized using a Dounce homogenizer and centrifuged at 48000×g for 20 min. The pellet was resuspended in cold buffer and homogenized again using a Dounce homogenizer. Subsequently, the homogenate was aliquoted, snap-frozen and stored at −80° C. for not more than 3-4 months.
To perform the competition binding assay, thawed membrane homogenate was added to each well of a 96-well plate (20 μg/well). The experimental compounds were serially diluted in 100% DMSO and added to each row of the assay plate to achieve desired compound concentrations, keeping the DMSO concentration in the assay plate at 1.33% of the final reaction volume. Next, ^3H Ro 25-6981 (4 nM) was added to the assay plate. After incubation for 1 hr at room temperature, the membrane bound radioligand was harvested on to GF/B filter plates (treated with 0.5% PEI for 1 hr at room temperature). The filter plates were dried at 50° C. for 20 mins, incubated with microscint 20 for 10 minutes and finally, the counts were read on TopCount (Perkin Elmer).

hERG channels = target: T3, hERG channels (Homo sapiens, UniProt Q12809); assay: hERG electrophysiology assay (patch clamp, HEK 293 cells); type: cell-based; conditions: HEK 293 cells stably expressing hERG, patch clamp tail current
T3 construct: expressed in transfected cells
Method: The experimental compounds were assessed for hERG activity on HEK 293 cells stably expressing hERG channels using patch clamp technique. Coverslips plated with hERG expressing cells were placed in the experimental chamber and were perfused with a solution composed of (in mM): 140 NaCl, 4 KCl, 1.8 CaCl2, 1 MgCl2, 10 Glucose, 10 HEPES (pH 7.4, NaOH) at room temperature. Borosilicate patch pipettes had tip resistances of 2-4 Mohms when filled with an internal solution containing 130 KCl, 1 MgCl2, 1 CaCl2, 10 EGTA, 10 HEPES, 5 ATP-K2 (pH 7.2, KOH). The cells were clamped at −80 mV in whole cell configuration using an Axopatch 200B (Axon instruments, Union City, Calif.) patch clamp amplifier controlled by pClamp (Axon instruments) software. Upon formation of a gigaseal, the following voltage protocol was repeatedly (0.05 Hz) applied to record tail currents: depolarization step from −80 mV to +20 mV for 2 seconds followed by a hyperpolarization step to −65 mV (3 seconds) to elicit tail currents and then, back to the holding potential. […] First, tail currents were recorded in presence of extracellular solution alone (control) and subsequently, in extracellular solution containing increasing compound concentrations. […] The percentage inhibition at each concentration was calculated as reduction in peak tail current with respect to the peak tail current recorded in the presence of control solution. […]

[2] = Drug levels in plasma and brain after mouse forced swim test; type: in vivo; conditions: iv, mice, 1 mg/Kg i.v., at the end of FST
Method: Forced Swim Test (FST) is an animal model used to assess antidepressant compounds in preclinical studies. The FST was performed similar to the method of Porsolt et al. with modifications (Porsolt R D, Bertin A, Jalfre M. Behavioral despair in mice: a primary screening test for antidepressants. Arch Int Pharmacodyn Thér 1977; 229:327-36). In this paradigm, mice are forced to swim in an inescapable cylinder filled with water. Under these conditions, mice will initially try to escape and eventually develop immobility behavior; this behavior is interpreted as a passive stress-coping strategy or depression-like behavior. Swim tanks were positioned inside a box made of plastic. Each tank was separated from each other by opaque plastic sheets to the height of cylinders. Three mice were subjected to test at a time. Swim sessions were conducted for 6 min by placing mice in individual glass cylinders (46 cm height×20 cm diameter) containing water (20-cm deep, maintained at 24-25° C.). […] The duration of immobility was evaluated during the total 6 min of the test and expressed as duration (sec) of immobility. […] All testing sessions were recorded with a video camera (Sony Handicam, Model: DCR-HC38E; PAL) and scoring was done using the Forced Swim Scan, Version 2.0 software (Clever Systems Inc., Reston, Va., USA; see Hayashi E, Shimamura M, Kuratani K, Kinoshita M, Hara H. Automated experimental system capturing three behavioral components during murine forced swim test. Life Sci. 2011 Feb. 28; 88(9-10):411-7 and Yuan P, Tragon T, Xia M, Leclair C A, Skoumbourdis A P, Zheng W, Thomas C J, Huang R, Austin C P, Chen G, Guitart X. Phosphodiesterase 4 inhibitors enhance sexual pleasure-seeking activity in rodents. […] For NCE testing: Test compound was administered in mice 15 min before swim session by i.v. route and immobility time was recorded for next 6 min. […] The NR2B receptor occupancy was determined as reported above and was determined to be 73%. […] The NR2B receptor occupancy was determined to be 79%.

[3] = Drug levels in blood plasma and brain tissue by mass spectroscopy (ex vivo occupancy study); conditions: male, CD-1, mouse, iv, mice, 3 mg/Kg i.v., 15 minutes post-dosing
Method: as §1, §2

[4] = plasma, read-out: Drug levels in the plasma
[5] = brain (homogenized forebrain tissue), read-out: drug levels in the homogonized brain tissue
[6] = plasma, read-out: Drug levels in the blood plasma

T1 sequence (Q01097 27-1482, other chains not shown): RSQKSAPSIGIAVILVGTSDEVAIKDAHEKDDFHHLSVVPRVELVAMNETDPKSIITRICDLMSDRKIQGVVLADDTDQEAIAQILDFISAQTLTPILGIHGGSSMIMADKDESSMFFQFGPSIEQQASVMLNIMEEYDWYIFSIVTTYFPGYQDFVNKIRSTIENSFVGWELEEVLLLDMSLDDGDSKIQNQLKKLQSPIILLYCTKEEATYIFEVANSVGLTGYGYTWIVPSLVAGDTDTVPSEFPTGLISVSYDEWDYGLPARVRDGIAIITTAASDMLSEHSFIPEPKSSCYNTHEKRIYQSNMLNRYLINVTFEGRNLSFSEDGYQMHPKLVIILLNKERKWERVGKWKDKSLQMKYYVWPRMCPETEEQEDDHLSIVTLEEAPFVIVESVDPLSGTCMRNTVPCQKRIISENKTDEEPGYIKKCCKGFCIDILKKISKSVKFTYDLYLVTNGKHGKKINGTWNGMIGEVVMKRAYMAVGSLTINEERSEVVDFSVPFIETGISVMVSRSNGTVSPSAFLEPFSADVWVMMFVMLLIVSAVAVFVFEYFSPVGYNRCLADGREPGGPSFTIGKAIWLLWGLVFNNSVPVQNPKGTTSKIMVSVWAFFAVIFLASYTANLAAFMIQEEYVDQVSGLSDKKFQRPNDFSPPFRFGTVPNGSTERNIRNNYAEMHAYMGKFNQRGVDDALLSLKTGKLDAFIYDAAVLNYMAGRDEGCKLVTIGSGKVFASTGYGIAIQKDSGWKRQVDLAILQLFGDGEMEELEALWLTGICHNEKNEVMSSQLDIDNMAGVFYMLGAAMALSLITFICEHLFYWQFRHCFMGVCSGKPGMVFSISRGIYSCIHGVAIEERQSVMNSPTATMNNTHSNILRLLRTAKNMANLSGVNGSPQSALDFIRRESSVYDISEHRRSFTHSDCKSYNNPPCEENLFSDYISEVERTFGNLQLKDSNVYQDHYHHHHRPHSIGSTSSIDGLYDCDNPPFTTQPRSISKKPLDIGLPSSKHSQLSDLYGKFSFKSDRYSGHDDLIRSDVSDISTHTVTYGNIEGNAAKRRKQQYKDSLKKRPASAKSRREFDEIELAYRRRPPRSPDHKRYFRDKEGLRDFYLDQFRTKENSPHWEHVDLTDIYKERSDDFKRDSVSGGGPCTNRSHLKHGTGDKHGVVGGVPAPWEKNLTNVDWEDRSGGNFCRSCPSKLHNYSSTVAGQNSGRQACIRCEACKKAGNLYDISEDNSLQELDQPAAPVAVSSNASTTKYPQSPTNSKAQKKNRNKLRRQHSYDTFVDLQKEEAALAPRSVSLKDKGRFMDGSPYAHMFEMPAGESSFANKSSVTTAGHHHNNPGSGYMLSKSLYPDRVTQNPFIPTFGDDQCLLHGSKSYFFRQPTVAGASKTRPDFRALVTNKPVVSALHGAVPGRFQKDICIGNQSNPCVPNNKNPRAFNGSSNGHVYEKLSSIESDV
T2 sequence (Q00960 27-1482, other chains not shown): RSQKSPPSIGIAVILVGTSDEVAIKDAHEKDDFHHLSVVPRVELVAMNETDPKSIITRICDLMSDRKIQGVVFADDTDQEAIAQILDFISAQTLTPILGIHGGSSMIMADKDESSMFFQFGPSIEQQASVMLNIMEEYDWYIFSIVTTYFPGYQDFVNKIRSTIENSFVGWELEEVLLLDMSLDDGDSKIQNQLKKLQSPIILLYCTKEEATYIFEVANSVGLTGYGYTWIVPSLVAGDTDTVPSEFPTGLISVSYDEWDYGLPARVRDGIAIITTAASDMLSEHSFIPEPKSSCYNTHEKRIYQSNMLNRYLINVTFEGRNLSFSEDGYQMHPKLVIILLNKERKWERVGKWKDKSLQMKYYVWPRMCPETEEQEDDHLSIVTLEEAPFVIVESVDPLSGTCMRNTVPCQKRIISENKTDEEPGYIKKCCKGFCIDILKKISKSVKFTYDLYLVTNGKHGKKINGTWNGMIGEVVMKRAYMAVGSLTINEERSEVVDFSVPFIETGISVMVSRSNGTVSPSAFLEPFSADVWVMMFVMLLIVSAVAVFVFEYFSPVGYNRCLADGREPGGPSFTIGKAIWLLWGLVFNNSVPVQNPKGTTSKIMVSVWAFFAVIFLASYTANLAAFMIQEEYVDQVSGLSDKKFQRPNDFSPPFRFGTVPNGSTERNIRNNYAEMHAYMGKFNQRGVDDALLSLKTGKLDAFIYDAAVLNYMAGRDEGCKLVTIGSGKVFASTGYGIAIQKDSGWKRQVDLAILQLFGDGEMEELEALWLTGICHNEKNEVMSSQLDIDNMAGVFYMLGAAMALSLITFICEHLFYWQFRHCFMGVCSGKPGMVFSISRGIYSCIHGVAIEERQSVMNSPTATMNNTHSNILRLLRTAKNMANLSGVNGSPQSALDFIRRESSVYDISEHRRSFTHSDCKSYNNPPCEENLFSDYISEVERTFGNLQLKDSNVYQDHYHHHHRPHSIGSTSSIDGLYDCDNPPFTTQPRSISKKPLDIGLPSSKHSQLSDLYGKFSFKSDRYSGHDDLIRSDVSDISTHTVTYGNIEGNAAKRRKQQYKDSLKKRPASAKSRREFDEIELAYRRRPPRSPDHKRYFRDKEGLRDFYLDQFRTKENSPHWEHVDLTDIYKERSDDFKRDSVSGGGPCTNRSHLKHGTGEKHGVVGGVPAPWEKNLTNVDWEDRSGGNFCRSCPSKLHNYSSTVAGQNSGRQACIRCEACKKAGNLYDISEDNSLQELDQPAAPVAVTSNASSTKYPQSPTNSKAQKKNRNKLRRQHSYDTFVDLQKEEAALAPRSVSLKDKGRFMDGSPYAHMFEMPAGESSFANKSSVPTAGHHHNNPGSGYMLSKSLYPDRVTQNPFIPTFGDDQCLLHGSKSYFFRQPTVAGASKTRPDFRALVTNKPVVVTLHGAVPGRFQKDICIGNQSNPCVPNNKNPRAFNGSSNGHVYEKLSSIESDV
T3 sequence (Q12809 whole entry): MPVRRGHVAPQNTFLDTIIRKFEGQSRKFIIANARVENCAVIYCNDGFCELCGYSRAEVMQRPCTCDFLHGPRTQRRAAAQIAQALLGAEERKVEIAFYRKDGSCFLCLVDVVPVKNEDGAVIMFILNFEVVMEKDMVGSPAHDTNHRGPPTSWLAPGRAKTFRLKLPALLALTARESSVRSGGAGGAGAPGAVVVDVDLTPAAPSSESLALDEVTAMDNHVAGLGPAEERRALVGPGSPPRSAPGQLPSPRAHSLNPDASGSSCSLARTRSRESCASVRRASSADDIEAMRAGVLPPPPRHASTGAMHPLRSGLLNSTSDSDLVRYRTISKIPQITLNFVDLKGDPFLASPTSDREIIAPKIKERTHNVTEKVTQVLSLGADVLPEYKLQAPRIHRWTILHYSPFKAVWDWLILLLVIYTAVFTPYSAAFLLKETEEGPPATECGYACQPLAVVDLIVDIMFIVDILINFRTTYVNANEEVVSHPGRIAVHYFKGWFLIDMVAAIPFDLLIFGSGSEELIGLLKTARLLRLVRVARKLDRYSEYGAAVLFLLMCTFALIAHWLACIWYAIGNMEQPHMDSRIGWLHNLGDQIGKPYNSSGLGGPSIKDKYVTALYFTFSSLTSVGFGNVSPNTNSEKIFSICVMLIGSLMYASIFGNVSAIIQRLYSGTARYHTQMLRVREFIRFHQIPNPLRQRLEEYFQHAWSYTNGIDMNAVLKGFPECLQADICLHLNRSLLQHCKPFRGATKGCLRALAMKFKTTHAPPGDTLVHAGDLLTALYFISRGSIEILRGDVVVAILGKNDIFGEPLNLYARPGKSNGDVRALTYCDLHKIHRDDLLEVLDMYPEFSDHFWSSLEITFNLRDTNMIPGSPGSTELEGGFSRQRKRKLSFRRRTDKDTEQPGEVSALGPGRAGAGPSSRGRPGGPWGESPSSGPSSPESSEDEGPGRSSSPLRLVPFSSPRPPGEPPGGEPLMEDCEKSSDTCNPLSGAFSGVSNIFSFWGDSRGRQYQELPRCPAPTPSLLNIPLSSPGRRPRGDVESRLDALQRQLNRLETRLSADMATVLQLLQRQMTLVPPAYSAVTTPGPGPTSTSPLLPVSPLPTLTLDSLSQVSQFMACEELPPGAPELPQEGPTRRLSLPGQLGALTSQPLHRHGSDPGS

receptor occupancy at 3 mg/kg (NR2B-subtype receptors) | receptor occupancy at 1 mg/kg (NR2B-subtype receptors) | Ki [1] | concentration at 21 min [2, 4] | concentration at 15 min [3, 5] | concentration at 15 min [3, 6] | concentration at 21 min ([2]; brain, read-out: Drug levels in the brain) | SMILES | immobility time (mice) | IC50 (hERG channels)
97% | 79% | 0.004 µM | 360 nM | 2200 nM | 1800 nM | – | O=C1[C@H](N2CC[C@@H](c3ccc(O)cc3)[C@H](F)C2)CCN1Cc1ccc(C(F)F)cc1 (single isomer, unassigned) [example 6] | statistically significant decrease in immobility time | 13.5 µM
96% | – | 0.0014 µM | – | 900 nM | 570 nM | – | O=C1[C@H](N2CCC(c3ccc(O)cc3)CC2)CCN1Cc1ccc(F)cc1 (single isomer, unassigned) [example 8] | – | –
95% | 73% | – | 268 nM | 1980 nM | 1110 nM | 749 nM | Cc1ccc(CN2CC[C@@H](N3CC[C@@H](c4ccc(O)cc4)[C@H](F)C3)C2=O)cc1 [example 1, (R)-3-((3S,4S)-3-fluoro-4-(4-hydroxyphenyl)piperidin-1-yl)-1-(4-methylbenzyl)pyrrolidin-2-one] | statistically significant decrease in immobility time | 28 µM

From patent US9187506B2 (Bristol-Meyers Squibb Company, priority 2014, dated 2015)
